Assay results as given in the C3SDB collision cross section collection.
Where “and” joins values, the source holds several entries; their conditions need not be identical. Equal values may be shown once.

Tests used:
[1] = instrument: TW, calibrated with phosphatidylcholines (ESI+) and phosphatidylethanolamines (ESI-)
[2] = instrument: DT, single field, calibrated with Agilent tune mix (Agilent)
[3] = instrument: TW, calibrated with phosphatidylcholines (ESI+) and phosphatidylethanolamines (ESI-); remark: listed apart in the source
[4] = instrument: DT, single field

**Q.** With `CCCCCCCCCCCCCCCCCCC(=O)OC(COC(=O)CCCCCCCCCCCCCC)COP(=O)([O-])OCC(O)COC(=O)C(N)CCCC[NH3+]` (centres undefined) [LysPG(34:0)] as the compound, how does the “collision cross section (N2)” value ([1]; [M+H]+) read?
**A.** The value was 302.5 Å².

**Q.** Which “collision cross section (N2)” value ([1]; [M+H]+) does the source give for `CCCCCC/C=C\CCCCCCCCCC(=O)OCC(COP(=O)([O-])OCC(O)COC(=O)C(N)CCCC[NH3+])OC(=O)CCCCCCCCCCCCCCCC` (centres undefined) [LysPG(35:1)] here?
**A.** The value was 303.5 Å².

**Q.** With `CCCCCCCCCCCCCCCCCCCCC(=O)O[C@H](COC(=O)CCCCCCCCCCC)COP(=O)(O)O` [PA(33:0)] as the compound, how does the “collision cross section (N2)” value ([1]; [M-H]-) read?
**A.** Its value is 254.5 Å².

**Q.** Which “collision cross section (N2)” value ([1]; [M-H]-) does the source give for `CCCCCCCCCCCCCCCCCCCCCC(=O)OC[C@H](COP(=O)(O)O)OC(=O)CCCCCCCCCCC` [PA(34:0)] here?
**A.** Its value is 257.6 Å².

**Q.** With `CCCCCCCCCCCCCCCCCCCCC(=O)O[C@H](COC(=O)CCCCCCCCCCCCC)COP(=O)(O)O` [PA(35:0)] as the compound, how does the “collision cross section (N2)” value ([1]; [M-H]-) read?
**A.** Its value is 261 Å².

**Q.** With `CCCCCCCCCCCCCCCCC(=O)O[C@H](COC(=O)CCCCCCCCCCCCCC)COP(=O)(O)OC[C@@H](O)CO` [PG(16:0/16:0)] as the compound, how does the “collision cross section (N2)” value ([1]; [M-H]-) read?
**A.** The value was 264.5 Å².

**Q.** Which “collision cross section (N2)” value ([1]; [M-H]-) does the source give for `CCCCCCCCCCCCCCC(=O)O[C@H](COC(=O)CCCCCCCCCCCC)COP(=O)(O)OC[C@@H](O)CO` [PG(28:0)] here?
**A.** The value was 253.1 Å².

**Q.** With `CCCCCCC/C=C\CCCCCCCC(=O)O[C@H](COC(=O)CCCCCCCCCCCC)COP(=O)(O)OC[C@@H](O)CO` [PG(30:1)] as the compound, how does the “collision cross section (N2)” value ([1]; [M-H]-) read?
**A.** Its value is 257.1 Å².

**Q.** For `CCCCCC/C=C\CCCCCCCC(=O)O[C@H](COC(=O)CCCCCCCCCCCCCC)COP(=O)(O)OC[C@@H](O)CO` [PG(31:1)], which “collision cross section (N2)” value ([1]; [M-H]-) is on record?
**A.** Its value is 260.2 Å².

**Q.** Which “collision cross section (N2)” value ([1]; [M-H]-) does the source give for `CCCCCCCCCCCCCCCCCCCCC(=O)OC[C@H](COP(=O)(O)OC[C@@H](O)CO)OC(=O)CCCCCCCCCCC` [PG(33:0)] here?
**A.** Its value is 268.6 Å².

**Q.** Which “collision cross section (N2)” value ([1]; [M-H]-) does the source give for `CCCCC/C=C\CCCCCCCC(=O)OC[C@H](COP(=O)(O)OC[C@@H](O)CO)OC(=O)CCCCCCC/C=C\CCCCCCCC` [PG(33:2)] here?
**A.** The value was 264.5 Å².

**Q.** For `CCCCC/C=C\C/C=C\CCCCCCCCCCCC(=O)O[C@H](COC(=O)CCCCCCCCCCC)COP(=O)(O)OC[C@@H](O)CO` [PG(34:2)], which “collision cross section (N2)” value ([2]; [M+H]+) is on record?
**A.** Its value is 283.3 Å².

**Q.** And the “collision cross section (N2)” value ([2]; [M+NH4]+)?
**A.** Its value is 284.9 Å².

**Q.** What about the “collision cross section (N2)” value ([2]; [M-H]-) of the same compound?
**A.** The value was 268.7 Å².

**Q.** What about the “collision cross section (N2)” value ([1]; [M-H]-) of the same compound?
**A.** Its value is 268.1 Å².

**Q.** What about the “collision cross section (N2)” value ([3]; [M+Na]+) of the same compound?
**A.** The value was 278.2 Å².

**Q.** What about the “collision cross section (N2)” value ([3]; [M-H]-) of the same compound?
**A.** The value was 267.4 Å².

**Q.** Which “collision cross section (N2)” value ([1]; [M-H]-) does the source give for `CCC/C=C\C/C=C\CCCCCCCC(=O)O[C@H](CO/C=C\CCCCCCCCCCCCC)COP(=O)(O)OC[C@@H](O)CO` [PG(p31:2)] here?
**A.** The value was 256.8 Å².

**Q.** Which “collision cross section (N2)” value ([1]; [M-H]-) does the source give for `CCCCCC/C=C\CCCCCCCC(=O)O[C@H](CO/C=C\CCCCCCCCCCCCCCCC)COP(=O)(O)OC[C@@H](O)CO` [PG(p34:1)] here?
**A.** Its value is 268.6 Å².

**Q.** For `CCCCC/C=C\C/C=C\CCCCCCCC(=O)O[C@H](CO/C=C\CCCCCCCCCCCCCC)COP(=O)(O)OC[C@@H](O)CO` [PG(p34:2)], which “collision cross section (N2)” value ([1]; [M-H]-) is on record?
**A.** Its value is 266.6 Å².

**Q.** With `CCCCCCCCCCCCCCCC(=O)OC[C@H](COP(=O)(O)O[C@H]1C(O)C(O)C(O)[C@@H](O)C1O)OC(=O)CCCCCCCCCCCCCCC` (some centres undefined) [PI(16:0/16:0)] as the compound, how does the “collision cross section (N2)” value ([1]; [M+Na]+) read?
**A.** The value was 289.5 Å².

**Q.** And the “collision cross section (N2)” value ([1]; [M-H]-)?
**A.** Its value is 280.9 Å².

**Q.** With `CCCCCCCC/C=C\CCCCCCCC(=O)OC[C@@H](COC(=O)CCCCCCCCCCCC)OC(=O)CCCCCCCCCCCC` [TG(44:1)] as the compound, how does the “collision cross section (N2)” value ([4]; [M+NH4]+) read?
**A.** Its value is 296.47 Å² and 298.81 Å² and 298.68 Å².

**Q.** What about the “collision cross section (N2)” value ([4]; [M+Na]+) of the same compound?
**A.** The value was 295.37 Å² and 297.74 Å².

**Q.** For `CCCCCCCCCCCCCCCCCCCCCC(=O)OC[C@@H](COC(=O)CCCCCCCCCCC)OC(=O)CCCCCCCCCCC` [TG(46:0)], which “collision cross section (N2)” value ([4]; [M+Na]+) is on record?
**A.** The value was 302.69 Å² and 303.56 Å².

**Q.** Which “collision cross section (N2)” value ([4]; [M+NH4]+) does the source give for `CCCC/C=C\C/C=C\CCCCCCCC(=O)O[C@@H](COC(=O)CCCCCCCCC/C=C\C/C=C\CCCCC)COC(=O)CCCCCCCCCCC` [TG(49:4)] here?
**A.** The value was 307.56 Å².

**Q.** With `CCCCCCCCCCCCCCCCCCC(=O)OC[C@@H](COC(=O)CCCCCCCCCCC)OC(=O)CCCCCCCCCCCCCCCCCC` [TG(50:0)] as the compound, how does the “collision cross section (N2)” value ([4]; [M+Na]+) read?
**A.** Its value is 316.28 Å².

**Q.** For `CCCCC/C=C\C/C=C\C/C=C\C/C=C\CCCC(=O)OC[C@@H](COC(=O)CCCCCCCCCCC)OC(=O)CCCCCCC/C=C\CCCCCCCC` [TG(50:5)], which “collision cross section (N2)” value ([4]; [M+Na]+) is on record?
**A.** Its value is 308.34 Å² and 309.51 Å².

**Q.** For `CCCCC/C=C\C/C=C\CCCCCCCC(=O)OC[C@@H](COC(=O)CCCCCCC/C=C\CCCCC)OC(=O)CCCCCCC/C=C\C/C=C\CCCCC` [TG(51:5)], which “collision cross section (N2)” value ([4]; [M+NH4]+) is on record?
**A.** Its value is 312.57 Å².

**Q.** Which “collision cross section (N2)” value ([4]; [M+Na]+) does the source give for `CCCCCCCC/C=C\CCCCCCCCCC(=O)OC[C@@H](COC(=O)CCCCCCCCCCC)OC(=O)CCCCCCCCC/C=C\CCCCCCCC` [TG(52:2)] here?
**A.** The value was 319.25 Å² and 320.86 Å² and 321.71 Å².

**Q.** For `CCCCCCCCCCCCCCCCCCCCC(=O)OC[C@@H](COC(=O)CCCCCCCCCCC)OC(=O)CCCCCCCCCCCCCCCCCCCC` [TG(54:0)], which “collision cross section (N2)” value ([4]; [M+NH4]+) is on record?
**A.** Its value is 331.43 Å².

**Q.** With `CCCCC/C=C\C/C=C\C/C=C\C/C=C\CCCC(=O)OC[C@@H](COC(=O)CCCCCCCCCCCCC)OC(=O)CCCCCCCCCCCCCCCCCCC` [TG(54:4)] as the compound, how does the “collision cross section (N2)” value ([4]; [M+NH4]+) read?
**A.** Its value is 321.8 Å² and 324.34 Å² and 326.13 Å².

**Q.** And the “collision cross section (N2)” value ([4]; [M+Na]+)?
**A.** Its value is 320.63 Å² and 322.94 Å².

**Q.** With `CCCC/C=C\C/C=C\CCCCCCCC(=O)OC[C@H](COC(=O)CCCCCCCCC/C=C\CCCCCCCCCC)OC(=O)CCCCCCC/C=C\C/C=C\CCCC` [TG(56:5)] as the compound, how does the “collision cross section (N2)” value ([4]; [M+Na]+) read?
**A.** The value was 327.06 Å² and 327.86 Å².
